Assay results as given in patent US20240368104A1, “Novel Dialkoxynaphtho[2,3-C]Furan-1(3H)-One Derivatives and Pharmaceutical Composition For Preventing or Treating Respiratory Disease or SARS-COV-2 Infection Disease, Comprising Same” (priority 2021, published 2024).
Like-named read-outs stand apart in the source and are kept apart here.

Experiments:
[1] = system: SARS-COV-2; experiment: microbe, parasite or virus in culture; format: cell-based; design: SI (Selectivity Index, CC50/IC50): unit not given here; details: for SI (Selectivity Index, CC50/IC50): SARS-COV-2, values >50 assumed to be 50; for IC50: read-out: SARS-COV-2 inhibition (IC50)
[2] = in vitro; details: African green monkey
[3] = Severe acute respiratory syndrome coronavirus 2, Vero, 24 h
[4] = Severe acute respiratory syndrome coronavirus 2, Vero cells, 24 hours infection

| Compound | SI (Selectivity Index, CC50/IC50) [1] | IC50 [1, 3] | CC50 [2] | IC50 [1, 4] |
| --- | --- | --- | --- | --- |
| COc1cc2cc3c(c(-c4ccc(N(C)CC5CC5)nc4)c2cc1OC)C(=O)OC3.Cl [Example 183, 9-(6-((cyclopropylmethyl)(methyl)amino)pyridin-3-yl)-6,7-dimethoxynaphtho[2,3-c]furan-1(3H)-one] | 124.83 | 0.4 µM | > 50 µM |  |
| COc1cc2cc3c(c(-c4cccc(N5CCCC5)c4)c2cc1OC)C(=O)OC3.Cl [Example 252, 6,7-dimethoxy-9-(3-(pyrrolidin-1-yl)phenyl)naphtho[2,3-c]furan-1(3H)-one] | 1 | > 50 µM | > 50 µM |  |
| COCCOc1cncc(-c2c3c(cc4cc(OC)c(OC)cc24)COC3=O)c1 [Example 173, 6,7-dimethoxy-9-(5-(2-methoxyethoxy)pyridin-3-yl)naphtho[2,3-c]furan-1(3H)-one] | 1.0 |  | > 50 µM | > 50 µM |
| COc1cc2c(OC)c3c(c(-c4ccc(N(C)[C@H]5CCc6c(cccc6OC)C5)nc4)c2cc1OC)COC3=O [Example 266, (S)-6,7,9-trimethoxy-4-(6-((5-methoxy-1,2,3,4-tetrahydronaphthalen-2-yl)(methyl)amino)pyridin-3-yl)naphtho[2,3-c]furan-1(3H)-one] | 1.00 |  | > 50 µM | > 50 µM |
| COc1cc2cc3c(c(-c4ccc5cc(C(F)(F)F)cc(O)c5c4)c2cc1OC)C(=O)OC3 [Example 153, 9-(8-hydroxy-6-(trifluoromethyl)naphthalen-2-yl)-6,7-dimethoxynaphtho[2,3-c]furan-1(3H)-one] | 1.0 |  | > 50 µM | > 50 µM |
| COc1cc2cc3c(c(-c4ccnc5c(OC)cccc45)c2cc1OC)C(=O)OC3 [Example 140, 6,7-dimethoxy-9-(8-methoxyquinolin-4-yl)naphtho[2,3-c]furan-1(3H)-one] | 1.0 |  | > 50 µM | > 50 µM |
| COc1cc2c(OC)c3c(c(-c4ccc(N(C)c5cccc(C(F)(F)F)c5)nc4)c2cc1OC)COC3=O.Cl [Example 263, 6,7,9-trimethoxy-4-(6-(methyl(3-(trifluoromethyl)phenyl)amino)pyridin-3-yl)naphtho[2,3-c]furan-1(3H)-one] | 1.00 | > 50 µM | > 50 µM |  |
| COc1cc2cc(CO)c(C(=O)NC(C)C)c(-c3cc4c(cc3O)OCO4)c2cc1OC [Example 228, 1-(6-hydroxybenzo[d][1,3]dioxol-5-yl)-3-(hydroxymethyl)-N-isopropyl-6,7-dimethoxy-2-naphthamide] | 1.50 |  | > 50 µM | 33.4 µM |
| COc1cc2cc3c(c(-c4cnc(N5C[C@H](C)O[C@@H](C)C5)nc4)c2cc1OC)C(=O)OC3 [Example 62, 9-(2-((2S,6S)-2,6-dimethylmorpholino)pyrimidin-5-yl)-6,7-dimethoxynaphtho[2,3-c]furan-1(3H)] | 1.00 |  | > 50 µM | > 50 µM |
| COc1cc2cc3c(c(-c4ccc5cccnc5c4)c2cc1OC)C(=O)OC3 [Example 118, 6,7-dimethoxy-9-(quinolin-7-yl)naphtho[2,3-c]furan-1(3H)-one] | 257.92 |  | > 50 µM | 0.19 µM |
| CCCCCCCCCCN(CCCCCCCCCC)c1ncc(-c2c3c(cc4cc(OC)c(OC)cc24)COC3=O)cn1.Cl [Example 87, 9-(2-(didecylamino)pyrimidin-5-yl)-6,7-dimethoxynaphtho[2,3-c]furan-1(3H)-one hydrochloride] | 1.00 | > 50 µM | > 50 µM |  |
| CNc1cccc(-c2c3c(cc4cc(OC)c(OC)cc24)COC3=O)c1 [Example 257, 6,7-dimethoxy-9-(3-(methylamino)phenyl)naphtho[2,3-c]furan-1(3H)-one] | 6.24 |  | > 50 µM | 8.01 µM |
| COc1cc2cc3c(c(-c4cnc(N5CC(C)CC(C)C5)nc4)c2cc1OC)C(=O)OC3 (stereo not drawn) [Example 57, 9-(2-(3,5-dimethylpiperidin-1-yl)pyrimidin-5-yl)-6,7-dimethoxynaphtho[2,3-c]furan-1(3H)-one] | 12.07 |  | > 50 µM | 4.14 µM |
| CCN(CC)c1ccc(-c2c3c(cc4cc(OC)c(OC)cc24)COC3=O)cn1 [Example 160, 9-(6-(diethylamino)pyridin-3-yl)-6,7-dimethoxynaphtho[2,3-c]furan-1(3H)-one] | 60.45 |  | > 50 µM | 0.83 µM |
| CCCN(CCO)c1ncc(-c2c3c(cc4cc(OC)c(OC)cc24)COC3=O)cn1.Cl [Example 77, 9-(2-((2-hydroxyethyl)(propyl)amino)pyrimidin-5-yl)-6,7-dimethoxynaphtho[2,3-c]furan-1(3H)-one hydrochloride] | 1.58 | 31.6 µM | > 50 µM |  |
| COc1cc2cc3c(c(-c4cnc(N5CCC(N(C)C)CC5)nc4)c2cc1OC)C(=O)OC3 [Example 205, 9-(2-(4-(dimethylamino)piperidin-1-yl)pyrimidin-5-yl)-6,7-dimethoxynaphtho[2,3-c]furan-1(3H)-one] | 7.75 |  | > 50 µM | 6.46 µM |
| COc1cc2cc3c(c(-c4ccc5ncc(C)cc5c4)c2cc1OC)C(=O)OC3 [Example 120, 6,7-dimethoxy-9-(3-methylquinolin-6-yl)naphtho[2,3-c]furan-1(3H)-one] | 12.07 |  | > 50 µM | 4.14 µM |
| COCCN(C)C(=O)[C@@H]1CCCN1c1ncc(-c2c3c(cc4cc(OC)c(OC)cc24)COC3=O)cn1 [Example 33, (S)-1-(5-(6,7-dimethoxy-3-oxo-1,3-dihydronaphtho[2,3-c]furan-4-yl)pyrimidin-2-yl)-N-(2-methoxyethyl)-N-methylpyrrolidin-2-carboxamide] | 1.00 |  | > 50 µM | > 50 µM |
| COc1cc2cc3c(c(-c4ccc(N5CCc6sccc6C5)nc4)c2cc1OC)C(=O)OC3 [Example 156, 9-(6-(6,7-dihydrothien[3,2-c]pyridin-5 (4H)-yl)pyridin-3-yl)-6,7-dimethoxynaphtho[2,3-c]furan-1(3H)-one] | 48.93 |  | > 50 µM | 1.02 µM |
| COc1cc2cc3c(c(-c4ccc(N5CCCC(c6cccc(C)c6)C5)nc4)c2cc1OC)C(=O)OC3 (stereo not drawn) [Example 202, 6,7-dimethoxy-9-(6-(3-(m-tolyl)piperidin-1-yl)pyridin-3-yl)naphtho[2,3-c]furan-1(3H)-one] | 38.01 |  | 38.4 µM | 1.01 µM |
| COc1cc2cc3c(c(-c4cnc(NC5CC5)nc4)c2cc1OC)C(=O)OC3 [Example 69, 9-(2-(cyclopropylamino)pyrimidin-5-yl)-6,7-dimethoxynaphtho[2,3-c]furan-1(3H)-one] | 1.00 |  | > 50 µM | > 50 µM |
| CCN(CCc1cn(CC)c2ccccc12)c1ccc(-c2c3c(cc4cc(OC)c(OC)cc24)COC3=O)cn1 [Example 197, 9-(6-(ethyl(2-(1-ethyl-1H-indol-3-yl)ethyl)amino)pyridin-3-yl)-6,7-dimethoxynaphtho[2,3-c]furan-1(3H)-one] | 2.88 |  | > 50 µM | 17.4 µM |
| COc1cc2c(OC)c3c(c(-c4ccc5c(c4)OC(F)(F)O5)c2cc1OC)COC3=O [Example 259, 4-(2,2-difluorobenzo[d][1,3]dioxol-5-yl)-6,7,9-trimethoxynaphtho[2,3-c]furan-1(3H)-one] | 1.00 |  | > 50 µM | > 50 µM |
| COc1cc2cc3c(c(-c4cc(C)nc5c(C(F)(F)F)cccc45)c2cc1OC)C(=O)OC3 [Example 136, 6,7-dimethoxy-9-(2-methyl-8-(trifluoromethyl)quinolin-4-yl)naphtho[2,3-c]furan-1(3H)-one] | 1.0 |  | > 50 µM | > 50 µM |
| COc1cc2cc3c(c(-c4cccc(N5CCOCC5)c4)c2cc1OC)C(=O)OC3 [Example 244, 6,7-dimethoxy-9-(3-morpholinophenyl)naphtho[2,3-c]furan-1(3H)-one] | 1.00 |  | > 50 µM | > 50 µM |
| CC[C@@H]1CCCCN1c1ncc(-c2c3c(cc4cc(OC)c(OC)cc24)COC3=O)cn1 [Example 113, (R)-9-(2-(2-ethylpiperidin-1-yl)pyrimidin-5-yl)-6,7-dimethoxynaphtho[2,3-c]furan-1(3H)-one] | 50.52 |  | > 50 µM | 0.99 µM |
| COc1cc2cc3c(c(-c4ccc(N(C)c5nnc(C)s5)nc4)c2cc1OC)C(=O)OC3 [Example 214, 6,7-dimethoxy-9-(6-(methyl(5-methyl-1,3,4-thiadiazol-2-yl)amino)pyridin-3-yl)naphtho[2,3-c]furan-1(3H)-one] | 1.00 |  | > 50 µM | > 50 µM |
| COc1cc2cc3c(c(-c4cnc(N5CCc6sccc6C5)nc4)c2cc1OC)C(=O)OC3 [Example 12, 9-(2-(6,7-dihydrothieno[3,2-c]pyridin-5 (4H)-yl)pyrimidin-5-yl)-6,7-dimethoxynaphtho[2,3-c]furan-1(3H)-one] | 60.38 |  | > 50 µM | 0.83 µM |
| COc1cc2cc3c(c(-c4ccc(N5CCOCC5)nc4)c2cc1OC)C(=O)OC3 [Example 124, 6,7-dimethoxy-9-(6-morpholinopyridin-3-yl)naphtho[2,3-c]furan-1(3H)-one] | 176.18 |  | > 50 µM | 0.28 µM |
| COc1cc2cc3c(c(-c4ccc(N(C)C)c([N+](=O)[O-])c4)c2cc1OC)C(=O)OC3.Cl [Example 217, 9-(4-(dimethylamino)-3-nitrophenyl)-6,7-dimethoxynaphtho[2,3-c]furan-1(3H)-one] | 10.06 | 4.97 µM | > 50 µM |  |
